Species: Rattus norvegicus
Experiment: Open TG-GATES - Regimen: Daily Repeat
Type: toxicity, organism-based, Sprague-Dawley
Set-up: regimen Daily Repeat, gender Male, age 6 weeks
Conditions: in vivo, po, 30 mg/kg, route gavage, dose level Low; for APTT / Bas / Eos / Fbg / Hb / Ht / Lym / MCH / MCHC / MCV / Mono / Neu / PT / Plat / RBC / Ret / WBC: tissue Blood; for KIDNEY_L / KIDNEY_R / KIDNEY_TOTAL: tissue Kidney; for LIVER: tissue Liver; for A/G / ALP / ALT / AST / BUN / CRE / Ca / Cl / DBIL / GLC / IP / K / LDH / Na / PL / RALB / TBIL / TC / TG / TP / gamma-GTP: tissue Plasma

SMILES: CCc1oc2ccccc2c1C(=O)c1cc(I)c(O)c(I)c1 [BENZIODARONE]
- TERMINAL_BW (72 h, time 3 day): 242 g
- APTT (72 h, time 3 day): 17.5 s
- Bas (72 h, time 3 day): 0%
- Eos (72 h, time 3 day): 1%
- Fbg (72 h, time 3 day): 216.8 mg/dL
- Hb (72 h, time 3 day): 13.8 g/dL
- Ht (72 h, time 3 day): 40.8%
- Lym (72 h, time 3 day): 79.4%
- MCH (72 h, time 3 day): 21.9 pg
- MCHC (72 h, time 3 day): 33.8%
- MCV (72 h, time 3 day): 64.7 fL
- Mono (72 h, time 3 day): 6.4%
- Neu (72 h, time 3 day): 13.2%
- PT (72 h, time 3 day): 11.7 s
- Plat (72 h, time 3 day): 115.3 x10_4/uL
- RBC (72 h, time 3 day): 629.4 x10_4/ul
- Ret (72 h, time 3 day): 6.5%
- WBC (72 h, time 3 day): 104.5 x10_2/uL
- KIDNEY_L (72 h, time 3 day): 1.1 g
- KIDNEY_R (72 h, time 3 day): 1.1 g
- KIDNEY_TOTAL (72 h, time 3 day): 2.2 g
- LIVER (72 h, time 3 day): 12.7 g
- A/G (72 h, time 3 day): 1.8
- ALP (72 h, time 3 day): 1087.2 IU/L
- ALT (72 h, time 3 day): 42.6 IU/L
- AST (72 h, time 3 day): 67.4 IU/L
- BUN (72 h, time 3 day): 16.8 mg/dL
- CRE (72 h, time 3 day): 0.5 mg/dL
- Ca (72 h, time 3 day): 10.7 mg/dL
- Cl (72 h, time 3 day): 104 meq/L
- DBIL (72 h, time 3 day): 0.016 mg/dL
- GLC (72 h, time 3 day): 191.2 mg/dL
- IP (72 h, time 3 day): 7.8 mg/dL
- K (72 h, time 3 day): 4.5 meq/L
- LDH (72 h, time 3 day): 103.8 IU/L
- Na (72 h, time 3 day): 141 meq/L
- PL (72 h, time 3 day): 155.4 mg/dL
- RALB (72 h, time 3 day): 3.6 g/dL
- TBIL (72 h, time 3 day): 0.3 mg/dL
- TC (72 h, time 3 day): 79.4 mg/dL
- TG (72 h, time 3 day): 74.4 mg/dL
- TP (72 h, time 3 day): 5.7 g/dL
- gamma-GTP (72 h, time 3 day): 1.6 IU/L
- TERMINAL_BW ([…], time 7 day): 274.9 g
- TERMINAL_BW ([…], time 14 day): 323 g
- TERMINAL_BW ([…], time 28 day): 399.3 g
- APTT ([…], time 7 day): 17.5 s
- Bas ([…], time 7 day): 0%
- Eos ([…], time 7 day): 1%
- Fbg ([…], time 7 day): 221.6 mg/dL
- Hb ([…], time 7 day): 14.2 g/dL
- Ht ([…], time 7 day): 41.8%
- Lym ([…], time 7 day): 84.6%
- MCH ([…], time 7 day): 21.5 pg
- MCHC ([…], time 7 day): 34%
- MCV ([…], time 7 day): 63.2 fL
- Mono ([…], time 7 day): 4.6%
- Neu ([…], time 7 day): 10%
- PT ([…], time 7 day): 11.9 s
- Plat ([…], time 7 day): 117.9 x10_4/uL
- RBC ([…], time 7 day): 661.6 x10_4/ul
- Ret ([…], time 7 day): 4.7%
- WBC ([…], time 7 day): 111.9 x10_2/uL
- APTT ([…], time 14 day): 18.1 s
- Bas ([…], time 14 day): 0%
- Eos ([…], time 14 day): 1%
- Fbg ([…], time 14 day): 223.6 mg/dL
- Hb ([…], time 14 day): 14.6 g/dL
- Ht ([…], time 14 day): 43.4%
- Lym ([…], time 14 day): 82.8%
- MCH ([…], time 14 day): 20.5 pg
- MCHC ([…], time 14 day): 33.6%
- MCV ([…], time 14 day): 61.1 fL
- Mono ([…], time 14 day): 5.2%
- Neu ([…], time 14 day): 11.2%
- PT ([…], time 14 day): 11.8 s
- Plat ([…], time 14 day): 117.5 x10_4/uL
- RBC ([…], time 14 day): 710 x10_4/ul
- Ret ([…], time 14 day): 2.5%
- WBC ([…], time 14 day): 109.1 x10_2/uL
- APTT ([…], time 28 day): 18.9 s
- Bas ([…], time 28 day): 0%
- Eos ([…], time 28 day): 1.6%
- Fbg ([…], time 28 day): 231.2 mg/dL
- Hb ([…], time 28 day): 15.2 g/dL
- Ht ([…], time 28 day): 45.4%
- Lym ([…], time 28 day): 83.2%
- MCH ([…], time 28 day): 19 pg
- MCHC ([…], time 28 day): 33.6%
- MCV ([…], time 28 day): 56.7 fL
- Mono ([…], time 28 day): 4.8%
- Neu ([…], time 28 day): 11%
- PT ([…], time 28 day): 12 s
- Plat ([…], time 28 day): 124.3 x10_4/uL
- RBC ([…], time 28 day): 799.8 x10_4/ul
- Ret ([…], time 28 day): 3%
- WBC ([…], time 28 day): 128.8 x10_2/uL
- KIDNEY_L ([…], time 7 day): 1.2 g
- KIDNEY_R ([…], time 7 day): 1.2 g
- KIDNEY_TOTAL ([…], time 7 day): 2.4 g
- KIDNEY_L ([…], time 14 day): 1.3 g
- KIDNEY_R ([…], time 14 day): 1.3 g
- KIDNEY_TOTAL ([…], time 14 day): 2.5 g
- KIDNEY_L ([…], time 28 day): 1.4 g
- KIDNEY_R ([…], time 28 day): 1.4 g
- KIDNEY_TOTAL ([…], time 28 day): 2.9 g
- LIVER ([…], time 7 day): 14.7 g
- LIVER ([…], time 14 day): 15.7 g
- LIVER ([…], time 28 day): 18.7 g
- A/G ([…], time 7 day): 1.7
- ALP ([…], time 7 day): 918 IU/L
- ALT ([…], time 7 day): 32.6 IU/L
- AST ([…], time 7 day): 63.4 IU/L
- BUN ([…], time 7 day): 18 mg/dL
- CRE ([…], time 7 day): 0.6 mg/dL
- Ca ([…], time 7 day): 10.8 mg/dL
- Cl ([…], time 7 day): 103.4 meq/L
- DBIL ([…], time 7 day): 0.018 mg/dL
- GLC ([…], time 7 day): 191.8 mg/dL
- IP ([…], time 7 day): 7.3 mg/dL
- K ([…], time 7 day): 4.6 meq/L
- LDH ([…], time 7 day): 101.6 IU/L
- Na ([…], time 7 day): 139.6 meq/L
- PL ([…], time 7 day): 153.2 mg/dL
- RALB ([…], time 7 day): 3.7 g/dL
- TBIL ([…], time 7 day): 0.3 mg/dL
- TC ([…], time 7 day): 73.6 mg/dL
- TG ([…], time 7 day): 110.6 mg/dL
- TP ([…], time 7 day): 5.9 g/dL
- gamma-GTP ([…], time 7 day): 2 IU/L
- A/G ([…], time 14 day): 1.7
- ALP ([…], time 14 day): 914 IU/L
- ALT ([…], time 14 day): 31.8 IU/L
- AST ([…], time 14 day): 63.2 IU/L
- BUN ([…], time 14 day): 19.6 mg/dL
- CRE ([…], time 14 day): 0.5 mg/dL
- Ca ([…], time 14 day): 10.3 mg/dL
- Cl ([…], time 14 day): 105.2 meq/L
- DBIL ([…], time 14 day): 0.008 mg/dL
- GLC ([…], time 14 day): 200.4 mg/dL
- IP ([…], time 14 day): 6.7 mg/dL
- K ([…], time 14 day): 4.6 meq/L
- LDH ([…], time 14 day): 109.6 IU/L
- Na ([…], time 14 day): 141.2 meq/L
- PL ([…], time 14 day): 152.8 mg/dL
- RALB ([…], time 14 day): 3.9 g/dL
- TBIL ([…], time 14 day): 0.3 mg/dL
- TC ([…], time 14 day): 71.6 mg/dL
- TG ([…], time 14 day): 159.4 mg/dL
- TP ([…], time 14 day): 6.2 g/dL
- gamma-GTP ([…], time 14 day): 1.8 IU/L
- A/G ([…], time 28 day): 1.8
- ALP ([…], time 28 day): 629.8 IU/L
- ALT ([…], time 28 day): 36.4 IU/L
- AST ([…], time 28 day): 63.8 IU/L
- BUN ([…], time 28 day): 20.2 mg/dL
- CRE ([…], time 28 day): 0.7 mg/dL
- Ca ([…], time 28 day): 10.9 mg/dL
- Cl ([…], time 28 day): 104.2 meq/L
- DBIL ([…], time 28 day): 0.01 mg/dL
- GLC ([…], time 28 day): 194.4 mg/dL
- IP ([…], time 28 day): 6.4 mg/dL
- K ([…], time 28 day): 4.4 meq/L
- LDH ([…], time 28 day): 121.4 IU/L
- Na ([…], time 28 day): 139.6 meq/L
- PL ([…], time 28 day): 156.6 mg/dL
- RALB ([…], time 28 day): 4 g/dL
- TBIL ([…], time 28 day): 0.3 mg/dL
- TC ([…], time 28 day): 78.4 mg/dL
- TG ([…], time 28 day): 123.8 mg/dL
- TP ([…], time 28 day): 6.3 g/dL
- gamma-GTP ([…], time 28 day): 1.8 IU/L

— ChEMBL document CHEMBL3885861, “Open TG-GATES”
